Test results: patent US9499811B2, “Ligation enhancement” (New England Biolabs, Inc., priority 2011, dated 2016)
“Also recorded” adds a separate entry of the source.

Legend:
Assay type in all cases: biochemical
Design in all cases: purchased NEB (New England Biolabs), Ipswich, Mass. #M0202
T4 DNA ligase [1] = target: T1, T4 DNA ligase (Enterobacteria phage T4, UniProt P00970); conditions: enhancer at 12%; no addition = 1-fold; single-base overhangs
T1 sequence (P00970 1-487): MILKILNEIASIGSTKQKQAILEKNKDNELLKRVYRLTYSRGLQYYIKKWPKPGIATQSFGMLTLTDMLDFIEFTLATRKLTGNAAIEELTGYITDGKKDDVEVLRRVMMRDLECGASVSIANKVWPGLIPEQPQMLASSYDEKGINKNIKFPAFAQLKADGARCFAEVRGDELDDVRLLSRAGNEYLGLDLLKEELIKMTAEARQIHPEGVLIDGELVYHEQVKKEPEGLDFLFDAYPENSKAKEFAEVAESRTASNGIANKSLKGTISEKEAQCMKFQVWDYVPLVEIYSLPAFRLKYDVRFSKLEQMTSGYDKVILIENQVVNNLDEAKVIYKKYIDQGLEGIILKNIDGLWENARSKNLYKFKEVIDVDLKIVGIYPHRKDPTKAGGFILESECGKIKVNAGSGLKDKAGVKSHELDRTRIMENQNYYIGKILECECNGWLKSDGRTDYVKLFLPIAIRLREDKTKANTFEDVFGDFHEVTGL
Procedure: All were tested side-by-side using two ligation test systems which were: (a) cloning of a 500 bp amplicon made by Taq DNA polymerase into a T-tailed vector; and (b) recircularization of an AhdI-linearized plasmid. Both ligation test systems used DNA with single-base overhangs.
(§1) The reaction mixtures contained DNA at 50-100 ng and 1,2-PrD at different concentrations. 1 μl of regular concentration (NEB, Ipswich, Mass., #M0202; 400 units) or 1 μl of high concentration T4 DNA ligase (NEB, Ipswich, Mass., #M0202; 2000 units) was then added to a final volume of 21 μl in 1×T4 DNA Ligase Buffer (NEB, Ipwich, Mass., #B0202) or 1× Quick Ligase™ Buffer (NEB, Ipswich, Mass., #B2200).
(§2) A standard assay uses 100 ng DNA, 1 μl of T4 DNA ligase, 21 μl 1×T4 DNA ligase buffer and varying amounts of enhancer.
(§3) Ligation reactions were incubated for 10 min at room temperature (25° C.) unless otherwise stated, then placed on ice for 2 min. In some experiments the ligase was heat-killed by incubation at 65° C. for 20 min. The ligation reactions were analyzed by 1% agarose gel electrophoresis to identify DNA species and determine the efficiency of […].
(§4) A volume of 2 μl from each ligation reaction was incubated with 50 μl of chemically competent (NEB, Ipswich, Mass., #C2987I) or electrocompetent (NEB, Ipswich, Mass., #C2989K) DH5 alpha E. coli cells.
(§5) For chemically competent cell transformations, the cell-DNA mixture was incubated on ice for 30 min, heat-shocked at 42° C. for 30 sec, then returned to ice for 5 min. A volume of 950 μl SOC medium (2% vegetable peptone or Tryptone, 0.5% yeast extract, 10 mM NaCl, 2.5 mM KCl, 10 mM MgCl2, 10 mM MgSO4 and 20 mM glucose) was added to the cell-DNA mixture, followed by a one hr 37° C. outgrowth period with agitation. A volume of 25-50 μl of appropriately diluted cells in SOC was spread onto Rich Agar plates (composition per liter: 10 g soy peptone, 5 g yeast extract, 10 g NaCl, 1 g MgCl2-6H2O, 1 g dextrose, 15 grams agar) supplemented with 100 μg/ml ampicillin. Plates were inverted and incubated for 16 hrs at 37° C., followed by quantification of total colony numbers.

T4 DNA ligase [2] = target: T1, T4 DNA ligase; experiment: Recircularization of AhdI-linearized pUC19 and transformation of NEB Turbo cells (FIGS. 1A-C); conditions: 0, 4%, 6% 1,2-PrD, 400 U T4 DNA ligase, 20 min 16 C
Description: FIGS. 1A-C show the results of recircularization through ligation of double-stranded linearized plasmid DNA in the presence of increasing amounts of 1,2-PrD. The ligated DNA is subsequently transformed into competent E. coli cells, followed by plating on agar ampicillin selection plates. The extent of successful transformation is illustrated by the numbers of colonies on the plate.
Linearization of the pUC19 plasmid was achieved using AhdI to generate single-base overhangs as described in FIG. 3A. Ligation of the cleaved DNA was performed in a 20 μl ligation reaction containing 100 ng of DNA in the presence and absence of 1,2-PrD and 400 U of T4 DNA ligase was incubated for 20 min at 16° C., then heated to 65° C. for 45 min to inactivate the ligase. Transformation of cells with the ligated DNA was performed using chemically competent NEB Turbo™ cells (NEB, Ipswich, Mass., #C2984H) as described in Example 1 using 2 μl of the ligation mix (containing 10 ng DNA) with an outgrowth period of 20 min.

T4 DNA ligase [3] = target: T1, T4 DNA ligase; experiment: Cloning of inserts with single-base 3'A overhangs into Qiagen cloning vector, ligation and subsequent transformation; conditions: 6% 1,2-PrD
Procedure: This test used a commercially available cloning vector from Qiagen, Valencia, Calif. (#231124) specifically designed to clone DNA fragments with single-base 3′A overhangs.
as §1, §3, §4, §5
For electrocompetent cell transformation protocols, the cell-DNA mixture was subjected to electroporation, immediately followed by the addition of 950 μl of pre-warmed 37° C. SOC medium, followed by a one hour 37° C. outgrowth period with agitation. Dilution, plating, incubation and colony quantification were performed as described in Example 1A above.

T4 DNA ligase [4] = target: T1, T4 DNA ligase; experiment: Ligation efficiency assay (standard assay, various ligases and buffers); conditions: 1%-12% 1,2-PrD; various concentrations and types of DNA ligase, regular and Quick Ligase buffers
Procedure: as §1, §2, §3

[5] = insert 68mer cassette featuring No 5' PO4, 3' A overhang
[6] = insert 513 pb human genomic amplicon using Taq DNA polymerase

CC(O)CO (centres unmarked) [1,2-PrD, 1,2-propanediol]
Recircularization Enhancement (T4 DNA ligase [1]): 11-fold
Transformation levels (number of colonies) (T4 DNA ligase [2]): the greater the number of transformants; also recorded: increased transformation levels
Cloning Enhancement (chemical transformation) (T4 DNA ligase [3]; [5]): 14-fold
Cloning Enhancement (electroporation) (T4 DNA ligase [3]; [5]): 2-fold
Cloning Enhancement (chemical transformation) (T4 DNA ligase [3]; [6]): At least 72-fold
Cloning Enhancement (electroporation) (T4 DNA ligase [3]; [6]): 11-fold
Colonies (chemical transformation) (T4 DNA ligase [3]; insert 513 pb human genomic amplicon, 0 colonies without enhancer): 72 colonies)
Enhancement of ligation (T4 DNA ligase [4]): consistent enhancement of ligation
